We go through one substance from PMC10318527, “Utilization of dietary mixed-linkage β-glucans by the Firmicute Blautia producta” (The Journal of Biological Chemistry, 2023).

Experiment [1] has as its system BPGH16 mutant D381A. As to the kind of experiment: Kinetics of BPGH16 mutant D381A (DNS assay). The experiment is classed as biochemical, Blautia producta ATCC 27340. The procedure: The residues R331, L358, E379, D381, E384, W362, and H398 of BpGH16MLG were mutated to Ala by the Q5Site-Directed Mutagenesis Kit (New England Biolabs, UK, catalogue no. E0554S). Wild-type plasmid BpGH16-pET28a(+) was used as a template, and mutagenic forward and reverse primers were developed using NEBaseChanger with subtle modifications (Table S4). A 25 μl PCR cocktail was prepared for mutating each residue. The final concentration of Q5 Hot Start High-Fidelity 2X Master Mix was 1X, each primer was at 0.5 μM, the amount of used template was 20 ng, and the rest of the volume was made up of nuclease-free water. PCR was executed using the following conditions-initial denaturation was performed at 98 °C for 1 min, for each cycle-denaturation, annealing, and extension (72 °C) were set for 10 s, 20 s, and 7 min, respectively. A total of 25 cycles were performed, and the final extension was for 5 min 5 μl PCR products were loaded on 0.8% agarose gel to conform to the amplification of the mutagenic gene. Ligation of PCR products and cleavage of methylated template DNA was then performed using 5 μl KLD reaction buffer and 1 μl KLD enzyme cocktail at RT for 1 h. It was then transformed into E. coli TOP-10 cells and plasmids were isolated. The obtained plasmids were sequenced to confirm the mutation at the desired location. Once mutation was confirmed in a gene, the mutant plasmid was transformed into Rosetta (DE3) cells for protein expression. The mutant protein was then expressed as per the protocol mentioned earlier, and kinetics were performed with barley β-glucan.
Reactions were performed in 100 μl volume mixture using recombinant enzyme (final concentration at 0.1 mg/ml) in 50 mM sodium phosphate buffer (pH 5.7) at 37 °C for 1 h of incubation. Then, reactions were terminated by boiling for 5 min. Enzymatic assays were determined with 3,5- dinitrosalicylic acid (DNS) assay ([85]). In brief, 0.05 g Na2SO3 and 1 g DNS were mixed in a 50 ml water-containing reagent bottle and stirred about 6 h using a magnetic stirrer. After that, 200 μl phenol was added and made up to 100 ml. A working solution of DNS was prepared by adding 50 μl glucose (20% (w/v) stock) in prepared 100 ml of reagent mixtures and immediately used for experiments without adding NaOH. 80 μl DNS reagent was added to the reaction mixtures and incubated at 100 °C for 10 min, followed by ice-cooling for 10 min. Consequently, recorded the developed color spectrophotometrically at 575 nm ([85]). A standard curve generated by different concentrations of maltose was used for determining released reducing sugars in each case.

The test system of experiment [2] is B. producta ΔSBP. Briefly: Growth of B. producta ΔSBP mutant on barley β-glucan. The experiment is classed as cell-based, Blautia producta. To be noted: minimal medium containing 1% barley β-glucan. The procedure: The pBS423-ΔrepA- Δsbp was constructed by inserting 905 bp 5' and 1151 bp 3' flanking regions but lacking 1.2 kb core region of BpSBPMLG. It was inserted between Pst1 sites of the vector. GenScript Biotech (Singapore) PTE LTD carried out synthesis of the 2.2 kb flanking region and insertion into pBS423-ΔrepA. Competent cells of B. producta were prepared after inoculating 1 % primary culture into 300 ml GAM containing glucose (0.2%), sucrose (0.5 M), and glycine (1%). It was incubated until A600 reached 0.5-0.7 at 37 °C under anaerobic conditions. Afterward, cultures were transferred into 50 ml centrifuge tubes and centrifuged at 3000 × g for 20 min. The supernatant was discarded, and pellets were washed three times with washing solution (0.5 M sucrose and 10% glycerol) and stored at -80°C in aliquots of 50 µl.
The first cross-over event for knocking out was achieved by integrating 0.2 to 1 µg pBS423-ΔrepA- Δsbp in 50 µl competent cells of B. producta through electroporation using a condition of 25 µF, 2.0 kV, and 200 Ω. Gene Pulser Xcell (Bio-Rad Laboratories, Hercules, CA, USA) was used for this purpose. The treated cells were instantly mixed with 1 ml anaerobically pre-incubated GAM medium containing 0.2 % glucose, 0.5 M sucrose, 1 % glycine, 20 mM MgCl2.6H2O, and 2 mM CaCl2. […]

Experiment [3] deals with R. faecis. Briefly: Growth of R. faecis on barley β-glucan. The experiment is classed as cell-based, Roseburia faecis. The following applies: minimal medium with 1% barley β-glucan, no BpGH16MLG. The procedure:
[…] JCM 31261, B. pseudocatenulatum JCM 1200^T, B. adolescentis JCM 1275^T, B. coccoides JCM 1395^T, B. bifidum JCM 1254, and A. caccae JCM 13470^T were used for bacterial mono-culture experiments. […] About 5 μl glycerol stock was initially inoculated to 5 ml of GAM for the primary culture of these strains. […] The experiment was set up on 300 μl flat-bottomed 96-well microtiter plates. Reading was taken every interval of 8 h at 600 nm on a spectrophotometer.

“Also recorded” adds a separate entry of the source.

For Barley β-glucan, in experiment [1] (D381A versus native enzyme), the “overall loss in activity” value came to 1.34 fold and the reduction in kcat is given as 1.7 fold. Moreover, in experiment [1] (mutant D381A, DNS assay), the Km (usually the substrate concentration at which the rate is half of its maximum) is 0.17 ± 0.04 mg/mL and the kcat (in general, the maximal rate divided by the concentration of active sites) amounted to 35.7 ± 1.1 s⁻¹. Also, the “growth of B. producta ΔSBP compared to wild-type strain” value in experiment [2] is on record as “significant retardation in growth; also recorded: retarded growth”. Moreover, the “growth of R. faecis” value in experiment [3] is on record as “could not grow”.
